Results reported in US12459894B2, “Orally active melanocortin receptor-4 compounds” (Palatin Technologies, Inc., priority 2018, dated 2025).
Marks after values point to notes of the source that are not given here.

Experiments:
mMC1r = target: T1, mMC1r (Mus musculus, UniProt Q01727); test: cAMP assay, B16-F1 cells, NDP-α-MSH reference; assay type: cell-based; settings: vs NDP-α-MSH
T1 construct: endogenous in cells; host or cells: B16-F1 mouse melanoma cells
Procedure: (§1) Melanocortin receptor binding and function of Compound 7.1 was tested. Ki binding values (nM) were calculated utilizing the percent inhibit of the binding of iodine-125 labeled NDP-α-MSH against B16-F1 cells for mMC1r, and human recombinant CHO cells for hMC3r, hMC4r and hMC5r, with the inhibition constant calculated using the Cheng Prusoff equation. Functional results (EC50 and efficacy) were calculated utilizing cAMP assays with NDP-α-MSH for mMC1r, hMC3r and hMC4r, ACTH for hMC2r, and α-MSH for hMC5r for agonist measures, with the same target cells for melanocortin receptors mMC1r, hMC3r, hMC4r and hMC5r, and human recombinant Cloudman M3 cells for hMC2r.

hMC2r = target: T2, hMC2r (Homo sapiens, UniProt Q01718); test: cAMP assay, human recombinant Cloudman M3 cells, ACTH reference; assay type: cell-based; settings: vs ACTH
T2 construct: expressed in transfected cells; host or cells: Cloudman M3 cells
T2 sequence (Q01718 whole entry): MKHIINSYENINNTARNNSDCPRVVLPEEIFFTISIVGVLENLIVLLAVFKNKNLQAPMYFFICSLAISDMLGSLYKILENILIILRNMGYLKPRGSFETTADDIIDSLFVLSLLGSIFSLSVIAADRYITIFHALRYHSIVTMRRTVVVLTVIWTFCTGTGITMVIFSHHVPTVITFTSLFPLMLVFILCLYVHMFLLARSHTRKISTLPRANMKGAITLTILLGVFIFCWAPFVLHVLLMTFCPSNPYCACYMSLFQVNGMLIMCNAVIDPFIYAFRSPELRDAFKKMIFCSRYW
T2 sequence (Q9D159 whole entry partner): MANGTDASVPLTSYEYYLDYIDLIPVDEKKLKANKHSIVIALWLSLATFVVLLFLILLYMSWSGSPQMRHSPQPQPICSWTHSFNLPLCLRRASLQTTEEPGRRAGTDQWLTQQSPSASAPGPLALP
Procedure: as §1

hMC3r = target: T3, hMC3r (Homo sapiens, UniProt P41968); test: cAMP assay, human recombinant CHO cells, NDP-α-MSH reference; assay type: cell-based; settings: vs NDP-α-MSH
T3 construct: expressed in transfected cells; host or cells: CHO
T3 sequence (P41968 whole entry): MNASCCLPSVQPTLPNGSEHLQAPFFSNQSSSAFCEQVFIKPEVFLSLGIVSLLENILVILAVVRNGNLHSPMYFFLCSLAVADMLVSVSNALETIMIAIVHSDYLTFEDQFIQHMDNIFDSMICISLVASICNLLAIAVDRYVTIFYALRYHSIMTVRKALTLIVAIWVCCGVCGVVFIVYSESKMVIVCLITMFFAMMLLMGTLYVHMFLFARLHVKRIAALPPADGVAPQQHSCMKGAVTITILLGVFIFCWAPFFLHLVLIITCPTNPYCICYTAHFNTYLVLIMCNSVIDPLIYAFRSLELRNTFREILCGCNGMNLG
Procedure: as §1

hMC5r = target: T4, hMC5r (Homo sapiens, UniProt P33032); test: cAMP assay, human recombinant CHO cells, α-MSH reference; assay type: cell-based; settings: vs α-MSH
T4 construct: expressed in transfected cells; host or cells: CHO
T4 sequence (P33032 whole entry): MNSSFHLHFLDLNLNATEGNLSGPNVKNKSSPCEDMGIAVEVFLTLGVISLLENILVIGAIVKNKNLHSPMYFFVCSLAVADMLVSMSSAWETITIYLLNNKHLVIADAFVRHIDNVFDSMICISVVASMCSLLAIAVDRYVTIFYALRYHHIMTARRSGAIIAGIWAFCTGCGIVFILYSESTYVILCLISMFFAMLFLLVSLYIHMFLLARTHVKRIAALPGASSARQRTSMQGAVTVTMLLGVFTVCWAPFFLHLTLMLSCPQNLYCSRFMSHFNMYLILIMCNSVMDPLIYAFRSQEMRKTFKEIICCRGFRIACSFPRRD
Procedure: as §1

C57BL/6 male DIO mice = test: Body weight and food intake in vivo study in diet induced obese (DIO) mice; design: species or system mouse
Procedure: Compound 7.1 was assessed in a body weight and food intake in vivo study in diet induced obese (DIO) mice. C57BL/6 male DIO mice were utilized, that were 17 weeks of age on arrival. Animals were pre-conditioned on a high-fat diet for 11 weeks by Jackson Labs. […] Animals were single housed within a limited access rodent facility, and provided ad libitum with a commercial rodent diet and free access to drinking water. Animals were randomized into five groups, a vehicle group, three dose levels of compound 7.1 (3 mg/kg, 10 mg/kg and 30 mg/kg), and Peptide A, a positive control cyclic peptide of the formula Ac-Arg-cyclo(Om-Asn-D-Phe-Arg-Trp-Glu)-NH2. Following three days of sham dosing, animals were dosed for three days, with vehicle or Compound 7.1 dosed orally once daily at within one hour of lights out in the AM, and Peptide A dosed by subcutaneous injection twice daily within one hour before lights out and six hours after lights out. Body weights were measured one hour prior to lights out, and feed weights were measured both one hour prior to lights out and six hours post lights out.
• *p<0.05 vs. sham (vehicle control) using two-way ANOVA followed by Dunnett's post-test. • **p<0.01 vs sham (vehicle control) using two-way ANOVA followed by Dunnett's post-test.

[1] = Plasma concentrations following oral administration; assay type: in vivo, Sprague-Dawley rats; settings: Sprague-Dawley, rat, oral 30 mg/kg
Procedure: Plasma samples were measured at 15 minutes (2 animals) and 30 minutes, 1 hour, 2 hours, 4 hours, 8 hours and 24 hours (3 animals) post oral administration.

[2] = system: male mice homogygous for the obese spontaneous mutation, Lep^ob; test: Oral administration in leptin-deficient obese mice; assay type: in vivo, mouse; settings: 30 mg/kg twice daily for six consecutive days
Procedure: Male mice homogygous for the obese spontaneous mutation, Lep^ob, with resulting leptin protein deficiency, were individually housed with free access to feed and drinking water. All animals were sham-dosed twice daily for five days prior to initial drug administration, utilizing a vehicle dose of 3.2% mannitol and […] tris(hydroxymethyl)aminomethane at pH 7.4. On day 6 a cohort of the mice received compound 7.1 dissolved into the vehicle twice daily for six consecutive days at a dose of 30 mg/kg. Body weight of animals was measured daily, with data analyzed as the percent change from baseline of each individual animal, where baseline was defined as the average weight during the first three days of sham dosing. The averaged percent change from baseline of a vehicle group was then subtracted from each value to correct for continued weight gain or other study-wide factors. The change in body weight is shown in FIG. 3 starting on study day […], the first day of administration of compound 7.1.

MC4r (−/−) mice = test: Oral administration in MC4r knockout mice; assay type: in vivo, mouse; settings: 30 mg/kg twice daily oral gavage
Procedure: (§2) Feed intake and body weight was evaluated in MCr4 knockout (MC4r −/−) mice (Jackson Laboratories) compared to C57BI/6 DIO mice. […] Feed weights were taken at time 0, 2, 6 and 24 hours post lights out. […] The change in body weight is shown in FIG. 4 starting on study day 5, the first day of administraton of compound 7.1. […] Additionally, there was a statistically significant mean difference, 2.8%, 95% Cl (1.281, 4.253), and p value<0.0001 between DIO mice receiving compound 7.1 and MC4r (−/−) receiving compound 7.1.

C57BI/6 DIO mice = test: Oral administration in DIO mice (comparison to MC4r knockout mice); assay type: in vivo, mouse
Procedure: as §2

MC4r = MC4r (Homo sapiens, UniProt P32245); test: cAMP assay, human recombinant CHO cells, NDP-α-MSH reference; assay type: cell-based; design: expressed in transfected cells; host or cells: CHO; settings: vs NDP-α-MSH
Chain of MC4r (P32245 whole entry): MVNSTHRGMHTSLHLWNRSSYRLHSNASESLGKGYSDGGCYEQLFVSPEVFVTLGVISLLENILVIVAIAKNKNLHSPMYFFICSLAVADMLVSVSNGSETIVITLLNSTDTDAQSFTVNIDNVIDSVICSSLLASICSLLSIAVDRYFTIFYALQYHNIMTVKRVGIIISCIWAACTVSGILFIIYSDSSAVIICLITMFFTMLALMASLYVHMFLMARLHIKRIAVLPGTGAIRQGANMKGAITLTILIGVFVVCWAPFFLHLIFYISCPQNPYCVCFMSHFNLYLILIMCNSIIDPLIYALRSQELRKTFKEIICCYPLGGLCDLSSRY
Procedure: as §1

T1 sequence (Q01727 whole entry): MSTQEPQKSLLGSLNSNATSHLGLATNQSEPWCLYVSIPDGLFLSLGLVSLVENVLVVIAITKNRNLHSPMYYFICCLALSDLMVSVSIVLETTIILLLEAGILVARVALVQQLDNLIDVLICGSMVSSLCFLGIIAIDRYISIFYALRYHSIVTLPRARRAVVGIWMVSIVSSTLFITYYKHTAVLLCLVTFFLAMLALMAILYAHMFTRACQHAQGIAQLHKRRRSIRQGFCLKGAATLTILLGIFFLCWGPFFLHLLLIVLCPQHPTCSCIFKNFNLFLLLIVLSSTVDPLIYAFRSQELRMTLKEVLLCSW

SMILES: CC(=O)N1CCC(N(CC(C)C)N2CCN(C(=O)[C@@H](Cc3ccc(Cl)cc3)NC(=O)C(C)(C)N)CC2)CC1 [Compound 7.1, N-[(1R)-2-[4-[(1-acetyl-4-piperidyl)-isobutyl-amino]piperazin-1-yl]-1-[(4-chlorophenyl)methyl]-2-oxo-ethyl]-2-amino-2-methyl-propanamide]
- cAMP Efficacy (mMC1r): 72%
- cAMP Efficacy (hMC2r): 22%
- cAMP Efficacy (hMC3r): 28%
- cAMP Efficacy (hMC5r): 20%
- Body Weight Change (%) Mean (C57BL/6 male DIO mice; 3 mg/kg orally once daily, Day 0): 0%
- Food Intake - 24 Hours (g) Mean (C57BL/6 male DIO mice; 3 mg/kg orally once daily, Day 0, 24 hours post lights out): 1.90 g
- Body Weight Change (%) Mean (C57BL/6 male DIO mice; 3 mg/kg orally once daily, Day 1): −1.97%
- Food Intake - 24 Hours (g) Mean (C57BL/6 male DIO mice; 3 mg/kg orally once daily, Day 1, 24 hours post lights out): 2.03 g
- Body Weight Change (%) Mean (C57BL/6 male DIO mice; 3 mg/kg orally once daily, Day 2): −2.92%
- Food Intake - 24 Hours (g) Mean (C57BL/6 male DIO mice; 3 mg/kg orally once daily, Day 2, 24 hours post lights out): 2.11 g
- Body Weight Change (%) Mean (C57BL/6 male DIO mice; 3 mg/kg orally once daily, Day 3): −3.80* %
- body weight (C57BL/6 male DIO mice; 3 mg/kg, day 3): body weight loss on day 3
- Body Weight Change (%) Mean (C57BL/6 male DIO mice; 10 mg/kg orally once daily, Day 0): 0%
- Food Intake - 24 Hours (g) Mean (C57BL/6 male DIO mice; 10 mg/kg orally once daily, Day 0, 24 hours post lights out): 1.82 g
- Body Weight Change (%) Mean (C57BL/6 male DIO mice; 10 mg/kg orally once daily, Day 1): −2.48* %
- Food Intake - 24 Hours (g) Mean (C57BL/6 male DIO mice; 10 mg/kg orally once daily, Day 1, 24 hours post lights out): 1.78 g
- Body Weight Change (%) Mean (C57BL/6 male DIO mice; 10 mg/kg orally once daily, Day 2): −3.77** %
- Food Intake - 24 Hours (g) Mean (C57BL/6 male DIO mice; 10 mg/kg orally once daily, Day 2, 24 hours post lights out): 2.20 g
- Body Weight Change (%) Mean (C57BL/6 male DIO mice; 10 mg/kg orally once daily, Day 3): −4.35** %
- Body Weight Change (%) Mean (C57BL/6 male DIO mice; 30 mg/kg orally once daily, Day 0): 0%
- Food Intake - 24 Hours (g) Mean (C57BL/6 male DIO mice; 30 mg/kg orally once daily, Day 0, 24 hours post lights out): 1.62* g
- Body Weight Change (%) Mean (C57BL/6 male DIO mice; 30 mg/kg orally once daily, Day 1): −4.41** %
- Food Intake - 24 Hours (g) Mean (C57BL/6 male DIO mice; 30 mg/kg orally once daily, Day 1, 24 hours post lights out): 1.60* g
- Body Weight Change (%) Mean (C57BL/6 male DIO mice; 30 mg/kg orally once daily, Day 2): −5.82** %
- Food Intake - 24 Hours (g) Mean (C57BL/6 male DIO mice; 30 mg/kg orally once daily, Day 2, 24 hours post lights out): 1.91* g
- Body Weight Change (%) Mean (C57BL/6 male DIO mice; 30 mg/kg orally once daily, Day 3): −7.08** %
- feed intake (C57BL/6 male DIO mice; 30 mg/kg, 24 hours post lights out, entirety of the study, vs sham): significantly inhibited feed intake
- body weight (C57BL/6 male DIO mice; daily 10 mg/kg and 30 mg/kg, day 1 to 3): significant body weight loss
- Tmax [1]: 2 h
- decrease in body weight compared to vehicle controls [2]: 4.8%
- food consumption vs vehicle only (MC4r (−/−) mice): no differences in food consumption
- food consumption vs vehicle only (C57BI/6 DIO mice; 30 mg/kg twice daily oral gavage, DIO mice, 6 and 24 hour timepoints): significantly decreased
- mean difference in body weight change between DIO mice and MC4r (−/−) mice receiving compound (C57BI/6 DIO mice; 30 mg/kg twice daily oral, p value<0.0001): 2.8%
- body weight vs own vehicle group (C57BI/6 DIO mice; 30 mg/kg two daily administrations via oral gavage, DIO mice): significant body weight loss
- mean percentage body weight change difference between treated group and vehicle (C57BI/6 DIO mice; DIO mice, 30 mg/kg twice daily oral): 4.9%
- cAMP Efficacy (MC4r): 91%
